This is an account of results in paper PMC9406199, “Conformational Plasticity of Centrin 1 from Toxoplasma gondii in Binding to the Centrosomal Protein SFI1” (Biomolecules, 2022).

Where no end group is shown, it is not given here.

As a reminder, the Kd is a measure of binding affinity in units of concentration.

Experiment [1] addresses T1, TgCEN1 (recombinant, lacking the first 21 residues) (Toxoplasma gondii, UniProt A0A125YHX7).
T1 construct: TgCEN1 (lacking the first 21 residues) and its N-terminal (N-TgCEN1, 22–94 aa) and C-terminal (C-TgCEN1, 95–169 aa) domains; made in house
Kind of experiment: ITC titration of TgSFI1 peptides into TgCEN1. It counts as binding. As to conditions: for TΔS: T 298 K. On the procedure:
(§1) The recombinant TgCEN1 (lacking the first 21 residues) and its N-terminal (N-TgCEN1, 22–94 aa) and C-terminal (C-TgCEN1, 95–169 aa) domains were purified as previously described. The TgSFI1 peptides were synthesized by GenScript U.S.A. Inc. (Piscataway, NJ, USA). The concentration of each peptide was determined using their predicted molar extinction coefficient at 280 nm.
(§2) Isothermal titration calorimetry (ITC) experiments were performed on a MicroCal PEAQ-ITC instrument (Malvern Ltd., Malvern, UK) at 25 °C. Protein samples and peptides were solubilized in the same buffer containing 50 mM Tris–HCl, 150 mM KCl pH 7.5 and 5 mM CaCl2 or 5 mM EGTA. All the samples were filtered and degassed before use, and the pH was carefully determined to exclude any possible pH-related effect on ITC experiments.
(§3) A typical ITC experiment was performed by titrating 200 μL of a 30–50 μM protein solution with a 1 or 1.5 μL injection of 0.3–0.5 mM peptide (total injections 39 or 26, respectively) with an initial delay of 120 s and keeping a time gap of 120 s between injections. A reference injection of peptide into buffer without centrin was performed and subtracted from each experiment. The resulting curves were fitted to calculate apparent dissociation constants Kd, enthalpy changes (ΔH), and the apparent entropy change (ΔS) using the software MicroCal ITC Origin 7 Analysis Software (MicroCal, Malvern Ltd., Malvern, UK). All measurements were repeated in triplicate using at least two different protein preparations and the error was calculated as the mean standard error of the three measurements.

The target of experiment [2] is T2, C-TgCEN1 (C-terminal domain, 95–169 aa) (Toxoplasma gondii, UniProt A0A125YHX7).
T2 construct: C-terminal (C-TgCEN1, 95–169 aa); made in house
T2 sequence (A0A125YHX7 95-169): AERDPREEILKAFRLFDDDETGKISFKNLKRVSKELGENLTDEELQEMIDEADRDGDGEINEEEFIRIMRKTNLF
Kind of experiment: ITC titration of TgSFI1 peptides into C-TgCEN1. The experiment is classed as binding. As to conditions: SEM; for Kd / n (stoichiometry of binding) / ΔH: 25 °C; for Kd / n (stoichiometry of binding): 50 mM Tris-HCl; for TΔS: T 298 K. On the procedure: as §1, §2, §3
In general terms: In ITC the heat of successive injections is recorded.

Experiment [3] concerns the target T3, N-TgCEN1 (N-terminal domain, 22–94 aa) (Toxoplasma gondii, UniProt A0A125YHX7).
T3 construct: N-terminal (N-TgCEN1, 22–94 aa); made in house
The experiment in a line: ITC titration of TgSFI1 peptides into N-TgCEN1. It counts as binding. As to conditions: SEM. On the procedure: as §1, §2, §3

The target of experiment [4] is TgSFI1 R16 peptide R16 (Toxoplasma gondii) (UniProt S8F258). The experiment in a line: ITC.
TgSFI1 R16 peptide R16 (Toxoplasma gondii), sequence (S8F258 whole entry): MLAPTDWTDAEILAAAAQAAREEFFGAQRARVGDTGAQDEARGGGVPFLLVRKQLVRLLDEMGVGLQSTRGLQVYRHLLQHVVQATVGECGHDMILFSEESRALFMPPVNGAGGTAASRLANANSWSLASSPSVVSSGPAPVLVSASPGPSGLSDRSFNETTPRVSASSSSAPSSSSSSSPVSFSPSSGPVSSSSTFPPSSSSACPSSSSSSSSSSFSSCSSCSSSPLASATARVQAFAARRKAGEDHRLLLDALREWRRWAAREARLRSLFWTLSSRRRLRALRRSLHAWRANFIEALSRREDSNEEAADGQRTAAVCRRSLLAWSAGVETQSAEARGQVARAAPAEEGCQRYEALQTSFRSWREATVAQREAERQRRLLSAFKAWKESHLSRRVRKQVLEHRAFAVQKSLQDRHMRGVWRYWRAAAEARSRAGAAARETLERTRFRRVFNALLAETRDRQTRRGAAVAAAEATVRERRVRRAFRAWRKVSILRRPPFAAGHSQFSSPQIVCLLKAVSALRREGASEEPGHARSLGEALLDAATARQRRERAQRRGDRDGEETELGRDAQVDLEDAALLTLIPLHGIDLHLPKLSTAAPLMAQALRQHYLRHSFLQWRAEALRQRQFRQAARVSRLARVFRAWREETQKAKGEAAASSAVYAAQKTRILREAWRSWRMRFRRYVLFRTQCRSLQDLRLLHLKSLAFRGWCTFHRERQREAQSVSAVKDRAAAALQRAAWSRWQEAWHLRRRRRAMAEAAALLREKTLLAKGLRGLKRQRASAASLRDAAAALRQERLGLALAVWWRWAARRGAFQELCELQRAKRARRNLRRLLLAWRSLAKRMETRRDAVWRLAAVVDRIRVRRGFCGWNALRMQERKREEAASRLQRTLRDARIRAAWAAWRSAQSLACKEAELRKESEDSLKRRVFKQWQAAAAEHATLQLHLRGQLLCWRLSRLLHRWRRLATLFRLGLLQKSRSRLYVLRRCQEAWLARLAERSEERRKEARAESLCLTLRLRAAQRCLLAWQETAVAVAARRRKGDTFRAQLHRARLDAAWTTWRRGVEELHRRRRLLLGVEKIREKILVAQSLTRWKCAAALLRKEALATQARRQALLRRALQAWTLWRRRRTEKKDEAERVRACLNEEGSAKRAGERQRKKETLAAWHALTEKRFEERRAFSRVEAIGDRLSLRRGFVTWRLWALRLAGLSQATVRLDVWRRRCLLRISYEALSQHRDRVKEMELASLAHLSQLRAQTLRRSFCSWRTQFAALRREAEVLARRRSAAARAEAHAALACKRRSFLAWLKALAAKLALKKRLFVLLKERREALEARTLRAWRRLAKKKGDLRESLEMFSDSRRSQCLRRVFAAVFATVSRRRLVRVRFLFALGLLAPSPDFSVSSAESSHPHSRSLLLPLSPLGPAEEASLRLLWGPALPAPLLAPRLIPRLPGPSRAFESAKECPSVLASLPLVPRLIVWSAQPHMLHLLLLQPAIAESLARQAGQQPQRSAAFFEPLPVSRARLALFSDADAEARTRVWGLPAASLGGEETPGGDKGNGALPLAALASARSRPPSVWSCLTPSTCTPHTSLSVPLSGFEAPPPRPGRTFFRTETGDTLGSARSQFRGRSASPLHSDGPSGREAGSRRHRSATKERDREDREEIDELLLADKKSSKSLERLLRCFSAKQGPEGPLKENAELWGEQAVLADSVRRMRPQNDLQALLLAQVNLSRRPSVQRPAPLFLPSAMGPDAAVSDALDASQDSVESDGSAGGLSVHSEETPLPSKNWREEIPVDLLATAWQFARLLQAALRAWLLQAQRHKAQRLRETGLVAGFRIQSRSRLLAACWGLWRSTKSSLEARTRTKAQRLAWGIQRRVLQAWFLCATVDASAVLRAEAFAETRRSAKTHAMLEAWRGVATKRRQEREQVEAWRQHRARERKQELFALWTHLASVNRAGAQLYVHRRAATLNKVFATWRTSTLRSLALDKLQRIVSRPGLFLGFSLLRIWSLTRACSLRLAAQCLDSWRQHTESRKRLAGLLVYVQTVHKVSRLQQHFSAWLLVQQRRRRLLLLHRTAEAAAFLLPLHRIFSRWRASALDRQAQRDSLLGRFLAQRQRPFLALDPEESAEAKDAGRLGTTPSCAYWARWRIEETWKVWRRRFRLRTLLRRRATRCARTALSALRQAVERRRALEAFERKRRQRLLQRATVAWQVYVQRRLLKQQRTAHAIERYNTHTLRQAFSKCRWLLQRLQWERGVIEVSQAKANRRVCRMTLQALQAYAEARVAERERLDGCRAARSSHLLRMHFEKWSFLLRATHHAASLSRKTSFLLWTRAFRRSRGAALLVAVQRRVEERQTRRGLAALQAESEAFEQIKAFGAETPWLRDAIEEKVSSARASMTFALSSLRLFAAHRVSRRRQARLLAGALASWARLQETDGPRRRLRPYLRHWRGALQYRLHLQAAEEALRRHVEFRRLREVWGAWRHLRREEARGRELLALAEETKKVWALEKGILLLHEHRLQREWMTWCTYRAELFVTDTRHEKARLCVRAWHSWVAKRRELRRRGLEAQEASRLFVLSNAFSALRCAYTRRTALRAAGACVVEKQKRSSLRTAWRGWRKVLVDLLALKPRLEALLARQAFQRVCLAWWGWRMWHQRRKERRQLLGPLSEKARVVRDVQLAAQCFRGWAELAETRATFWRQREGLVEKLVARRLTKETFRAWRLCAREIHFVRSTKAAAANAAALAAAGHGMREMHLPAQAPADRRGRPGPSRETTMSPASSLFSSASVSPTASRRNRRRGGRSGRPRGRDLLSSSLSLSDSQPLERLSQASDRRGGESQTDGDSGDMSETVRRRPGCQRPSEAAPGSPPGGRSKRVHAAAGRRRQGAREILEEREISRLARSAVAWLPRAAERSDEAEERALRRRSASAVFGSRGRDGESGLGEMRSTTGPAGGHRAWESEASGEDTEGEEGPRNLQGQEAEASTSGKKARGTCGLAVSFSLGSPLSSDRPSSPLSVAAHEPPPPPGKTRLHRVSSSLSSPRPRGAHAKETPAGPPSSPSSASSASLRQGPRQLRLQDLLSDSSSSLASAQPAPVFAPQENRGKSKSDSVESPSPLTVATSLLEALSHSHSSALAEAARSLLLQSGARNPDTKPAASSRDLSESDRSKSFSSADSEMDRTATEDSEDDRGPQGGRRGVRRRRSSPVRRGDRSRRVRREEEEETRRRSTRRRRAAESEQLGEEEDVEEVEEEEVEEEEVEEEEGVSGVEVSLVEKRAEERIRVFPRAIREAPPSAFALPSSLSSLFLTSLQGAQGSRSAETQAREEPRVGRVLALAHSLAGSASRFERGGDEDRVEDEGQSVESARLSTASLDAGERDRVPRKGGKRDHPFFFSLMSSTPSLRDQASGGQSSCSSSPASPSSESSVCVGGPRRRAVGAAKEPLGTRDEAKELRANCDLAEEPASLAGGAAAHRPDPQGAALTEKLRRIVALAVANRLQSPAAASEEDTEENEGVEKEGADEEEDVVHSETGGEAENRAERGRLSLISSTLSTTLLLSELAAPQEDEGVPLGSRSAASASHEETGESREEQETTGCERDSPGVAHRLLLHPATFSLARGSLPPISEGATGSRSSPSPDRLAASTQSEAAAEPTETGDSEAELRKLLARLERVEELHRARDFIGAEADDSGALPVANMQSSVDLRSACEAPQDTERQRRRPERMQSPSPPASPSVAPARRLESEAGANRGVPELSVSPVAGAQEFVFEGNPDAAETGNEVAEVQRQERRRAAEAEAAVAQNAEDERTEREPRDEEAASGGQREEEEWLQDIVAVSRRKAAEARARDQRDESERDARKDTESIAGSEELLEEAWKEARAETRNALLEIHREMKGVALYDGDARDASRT
The mark [5] stands for this setting: 25 °C, 50 mM Tris-HCl, 150 mM KCl pH 7.5, 5 mM CaCl2, single binding site, mean ± SE of triplicate, SEM.
Where [6] appears, read: Ca2+-bound TgCEN1, single exothermic event, order of magnitude in text.
Where [7] appears, read: 150 mM KCl pH 7.5, 5 mM CaCl2, mean ± SE of triplicate.
[8] abbreviates: 25 °C, 50 mM Tris-HCl, 150 mM KCl pH 7.5, 5 mM EGTA, mean ± SE of triplicate, dash = no binding observed, SEM.
[9] abbreviates: 150 mM KCl pH 7.5, 5 mM EGTA, mean ± SE of triplicate, dash = no binding observed.
Setting [10] is: 25 °C, 50 mM Tris-HCl, 150 mM KCl pH 7.5, 5 mM CaCl2, first site (n1) of two-step binding, mean ± SE of triplicate, SEM.
Where [11] appears, read: 25 °C, 50 mM Tris-HCl, 150 mM KCl pH 7.5, 5 mM CaCl2, second site (n2) of two-step binding, mean ± SE of triplicate, SEM.
[12] abbreviates: pH 7.5, 5 mM CaCl2, mean ± SE of triplicate.
Setting [13] is: pH 7.5, 5 mM EGTA, mean ± SE of triplicate.

T3 sequence (A0A125YHX7 22-94): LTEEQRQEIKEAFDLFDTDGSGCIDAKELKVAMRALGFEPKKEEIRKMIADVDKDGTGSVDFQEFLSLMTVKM
T1 sequence (A0A125YHX7 22-169): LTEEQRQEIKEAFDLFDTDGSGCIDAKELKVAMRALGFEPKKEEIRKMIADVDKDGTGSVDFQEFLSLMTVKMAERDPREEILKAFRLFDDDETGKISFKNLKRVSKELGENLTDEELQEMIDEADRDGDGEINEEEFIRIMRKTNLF
TgCEN1, sequence (A0A125YHX7 whole entry): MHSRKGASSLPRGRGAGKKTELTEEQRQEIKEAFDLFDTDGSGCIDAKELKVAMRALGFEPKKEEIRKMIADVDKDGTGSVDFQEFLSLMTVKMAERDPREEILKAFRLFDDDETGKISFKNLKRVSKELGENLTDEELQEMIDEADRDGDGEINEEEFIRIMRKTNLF

AEAAAFLLPLHRIFSRWR [R24]: the values for the Kd in experiment [1] (setting [5]), in experiment [1] (setting [6]) and in experiment [2] (setting [7]) were 3.4 ± 0.6 µM, about 1 µM and 2.6 ± 0.3 µM, respectively.
Consider AEATVRERRVRRAFRAWR [R5], for which the Kd in experiment [1] (setting [5]) turned out to be 0.5 ± 0.1 µM; in experiment [1] (setting [8]) it was 36.9 ± 6.6 µM; in experiment [2] (setting [7]), 0.9 ± 0.1 µM; in experiment [2] (setting [9]), 47.8 ± 4.9 µM.
As for LATQARRQALLRRALQAWTL [R16], the Kd in experiment [1] (setting [10]) was determined as 0.009 ± 0.001 µM; in experiment [1] (setting [11]), 0.5 ± 0.1 µM; in experiment [1] (setting [8]), 3.4 ± 0.3 µM; in experiment [3] (25 °C, 50 mM Tris-HCl, 150 mM KCl pH 7.5, 5 mM CaCl2, mean ± SE of triplicate, dash = no binding observed), 0.4 ± 0.1 µM; in experiment [2] (setting [7]), 0.006 ± 0.001 µM; in experiment [2] (setting [9]), 9.1 ± 0.8 µM.
As to LQRAKRARRNLRRLLLAWRS [R10], the “n (stoichiometry of binding), n1” value in experiment [1] (setting [10]) is listed as “n1 = 0.7 ± 0.1”. The “n (stoichiometry of binding), n2” value in experiment [1] (setting [11]) is “n2 = 0.9 ± 0.1”. The “n (stoichiometry of binding)” value in experiment [1] (25 °C, 50 mM Tris-HCl, 150 mM KCl pH 7.5, 5 mM EGTA, mean ± SE of triplicate, SEM) is 0.8 ± 0.1; in experiment [3] (25 °C, 50 mM Tris-HCl, 150 mM KCl pH 7.5, 5 mM CaCl2, mean ± SE of triplicate) it was 0.7 ± 0.1; in experiment [2] (setting [7]), 0.7 ± 0.1; in experiment [2] (150 mM KCl pH 7.5, 5 mM EGTA, mean ± SE of triplicate), 0.7 ± 0.1. Also, the ΔH in experiment [1] (25 °C, pH 7.5, 5 mM CaCl2, first site (n1), mean ± SE of triplicate, SEM) was -19.1 ± 0.4 kcal/mol; in experiment [1] (25 °C, pH 7.5, 5 mM CaCl2, second site (n2), mean ± SE of triplicate, SEM), -12.1 ± 0.3 kcal/mol; in experiment [1] (25 °C, pH 7.5, 5 mM EGTA, mean ± SE of triplicate, SEM), -24.7 ± 0.4 kcal/mol; in experiment [3] (25 °C, pH 7.5, 5 mM CaCl2, mean ± SE of triplicate), -12.6 ± 0.9 kcal/mol; in experiment [2] (setting [12]), -15.8 ± 0.1 kcal/mol; in experiment [2] (setting [13]), -19.3 ± 0.1 kcal/mol. For the same substance, the TΔS in experiment [1] (pH 7.5, 5 mM CaCl2, first site (n1), mean ± SE of triplicate, SEM) was -6.3 ± 0.4 kcal/mol; in experiment [1] (pH 7.5, 5 mM CaCl2, second site (n2), mean ± SE of triplicate, SEM), -4.4 ± 0.3 kcal/mol; in experiment [1] (pH 7.5, 5 mM EGTA, mean ± SE of triplicate, SEM), -16.4 ± 0.4 kcal/mol; in experiment [3] (T 298 K, pH 7.5, 5 mM CaCl2, mean ± SE of triplicate), -4.4 ± 1.0 kcal/mol; in experiment [2] (setting [12]) it was -5.5 ± 0.5 kcal/mol; in experiment [2] (setting [13]), -11.5 ± 0.7 kcal/mol.
On to LQRTLRDARIRAAWAAWR [R12], for which the Kd was 0.5 ± 0.1 µM in experiment [1] (setting [5]), 29.8 ± 3.4 µM in experiment [1] (setting [8]), 0.4 ± 0.1 µM in experiment [2] (setting [7]) and 69.9 ± 7 µM in experiment [2] (setting [9]).
In the case of RVEAIGDRLSLRRGFVTWRL [R17], the Kd was determined as 0.8 ± 0.2 µM in experiment [1] (setting [5]) and 2.7 ± 0.1 µM in experiment [2] (setting [7]).
TgCEN1 (from UniProt A0A125YHX7) displayed a Kd in experiment [4] of 0.009 µM.
As to VVEKQKRSSLRTAWRGWR [R31], the dissociation constant (Kd) in experiment [1] (setting [5]) is 2.9 ± 0.1 µM; in experiment [1] (setting [6]), about 1 µM; in experiment [2] (setting [7]) it was 1.9 ± 0.1 µM.
